Laboratory results reported in patent US20250296953A1, “3,4-THIAZOLO-STEROIDS AND METHODS OF MAKING AND USING THE SAME” (Arkansas State University - Jonesboro, priority 2018, published 2025).

What was measured:
Test in all cases: Melanoma cytotoxicity assay (resazurin)
Type in all cases: cell-based
SK-MEL-25 = SK-MEL-25 melanoma cells, 24 hours with compound, resazurin; concentration not given
Experimental: (§1) Cytotoxicity Assay: Melanoma cells (˜4000 cells in each well) were incubated in a 96 well plates at 37° C. in 5% CO2 for 24 hours. Compounds were added in triplicates and the plate was further incubated for 24 hours. DMSO and dacarbazine were added as technical and positive controls respectively. Next day resazurin was added and the plate was further incubated for 6 hours followed by reading the plate at 544 nm (excitation) and 590 nm (emission) using BMG Labtech Fluostar Optima plate reader. IC50 values were determined by using Graphpad Prism.
(§2) On day 1, the cell line trypsinized and centrifuged to form cell pellet. The pellet was diluted in media, then counted using Countess automated cell counter. Approximately 4000 cells (198 uL) per well plated in […]. A control well of 200 uL growth media was also prepared. Wells closest to plate perimeter were filled with 200 uL PBS to prevent inner well evaporation. The 96 well plates are incubated in 37° C. incubator at 5% CO2 for 24 hours.
(§3) On day 2, compounds were added (in triplicate) along with DMSO/Dacarbazine controls (2 uL) added to bring wells to volume of 200 μL. The 96 well plates are incubated in 37° C. incubator at 5% CO2 for 24 hours.
(§4) On day 3, 40 μL of 0.15 mg/ml reszurin solution added to wells. Samples were placed in a 37° C. incubator at 5% CO2 for 6 hours. Excitation and emission for fluorescence measured at 544 nm and 590 nm using BMG Labtech Fluostar Optima plate reader
(§5) Percent viability determined by taking average of each triplicate well fluorescence and subtracting GM well reading to remove the background signal. This difference is then divided by the average of the negative control (DMSO) wells to determine percent viability.
(§6) IC50s were determined by using cereal dilution of compound to determine viability. Viabilities and concentration of cells are analyzed in Graphpad Prism by creating sigmoidal curve graph, which will determine the IC50 concentration.
(§7) We analyzed the ability of the thiazole-androstane derivatives to inhibit growth in various melanoma cell lines. The growth inhibition against melanoma cell lines of various compound is shown below in Tables 19 and 20. Inhibition results are reported as the IC50 concentration in μM of the indicated compound or as the percent viability […] of the indicated compound. NA=not available.

SK-MEL-28 = details: for SK-MEL-28 (% inhibition): SK-MEL-28 melanoma cells, 24 hours with compound, resazurin, concentration not given; for SK-MEL-28 (% viability): human, 24 h
Experimental: as §1, §2, §3, §4, §5, §6, §7

SK-MEL-5 = SK-MEL-5 melanoma cells, 24 hours with compound, resazurin; concentration not given
Experimental: as §1, §2, §3, §4, §5, §6, §7

| Structure (SMILES) | SK-MEL-25 (% inhibition) (SK-MEL-25) | SK-MEL-28 (% inhibition) (SK-MEL-28) | SK-MEL-5 (% inhibition) (SK-MEL-5) | SK-MEL-28 (% viability) (SK-MEL-28) |
| --- | --- | --- | --- | --- |
| CC(=O)Nc1nc2c(s1)C1=CC[C@@H]3[C@H](CC[C@]4(C)C(=O)CC[C@@H]34)[C@@]1(C)CC2 [IIb.1, N-[(1S,2R,13R,14S,18S)-2,18-dimethyl-17-oxo-8-thia-6-azapentacyclo[11.7.0.02,10.05,9.014,18]icosa-5(9),6,10-trien-7-yl]acetamide] | 31% | 16% | 5% |  |
| COc1ccc(Cl)cc1Nc1nc2c(s1)CC[C@@]1(C)C2=CC[C@@H]2[C@@H]1CC[C@]1(C)C(=O)CC[C@@H]21 [IIa.20, (1S,2R,13R,14S,18S)-7-(5-chloro-2-methoxy-anilino)-2,18-dimethyl-6-thia-8-azapentacyclo[11.7.0.02,10.05,9.014,18]icosa-5(9),7,10-trien-17-one] | 83% | 95% | 70% |  |
| C=CCNc1nc2c(s1)CC[C@@]1(C)C2=CC[C@@H]2[C@@H]1CC[C@]1(C)C(=O)CC[C@@H]21 [IIa.3, (1S,2R,13R,14S,18S)-7-(allylamino)-2,18-dimethyl-6-thia-8-azapentacyclo[11.7.0.02,10.05,9.014,18]icosa-5(9),7,10-trien-17-one] | 68% | 65% | 57% |  |
| C[C@]12CCc3sc(Nc4ccc(C(=O)O)cc4)nc3C1=CC[C@@H]1[C@@H]2CC[C@]2(C)C(=O)CC[C@@H]12 [IIa.23, 4-[[(1S,2R,13R,14S,18S)-2,18-dimethyl-17-oxo-6-thia-8-azapentacyclo[11.7.0.02,10.05,9.014,18]icosa-5(9),7,10-trien-7-yl]amino]benzoic acid] | 71% | 78% | 43% |  |
| COc1ccc(OC)c(Nc2nc3c(s2)CC[C@@]2(C)C3=CC[C@@H]3[C@@H]2CC[C@]2(C)C(=O)CC[C@@H]32)c1 [IIa.16, (1S,2R,13R,14S,18S)-7-(2,5-dimethoxyanilino)-2,18-dimethyl-6-thia-8-azapentacyclo[11.7.0.02,10.05,9.014,18]icosa-5(9),7,10-trien-17-one] | 70% | 86% | 81% |  |
| COc1ccccc1Nc1nc2c(s1)CC[C@@]1(C)C2=CC[C@@H]2[C@@H]1CC[C@]1(C)C(=O)CC[C@@H]21 [IIa.15, (1S,2R,13R,14S,18S)-7-(2-methoxyanilino)-2,18-dimethyl-6-thia-8-azapentacyclo[11.7.0.02,10.05,9.014,18]icosa-5(9),7,10-trien-17-one] | 67% | 13% | 76% |  |
| CCNc1nc2c(s1)CC[C@@]1(C)C2=CC[C@@H]2[C@@H]1CC[C@]1(C)C(=O)CC[C@@H]21 [IIa.30, (1S,2R,13R,14S,18S)-7-(ethylamino)-2,18-dimethyl-6-thia-8-azapentacyclo[11.7.0.02,10.05,9.014,18]icosa-5(9),7,10-trien-17-one] | 4% | 67% | 26% |  |
| C[C@]12CCc3sc(Nc4ncccn4)nc3C1=CC[C@@H]1[C@@H]2CC[C@]2(C)C(=O)CC[C@@H]12 [IIa.22, (1S,2R,13R,14S,18S)-2,18-dimethyl-7-(pyrimidin-2-ylamino)-6-thia-8-azapentacyclo[11.7.0.02,10.05,9.014,18]icosa-5(9),7,10-trien-17-one] | 3% | 4% | 15% |  |
| C[C@]12CCc3sc(NCCCN4CCOCC4)nc3C1=CC[C@@H]1[C@@H]2CC[C@]2(C)C(=O)CC[C@@H]12 [IIa.4, (1S,2R,13R,14S,18S)-2,18-dimethyl-7-(3-morpholinopropylamino)-6-thia-8-azapentacyclo[11.7.0.02,10.05,9.014,18]icosa-5(9),7,10-trien-17-one] | 66% |  | 74% |  |
| C[C@]12CCc3sc(NCc4ccccc4)nc3C1=CC[C@@H]1[C@@H]2CC[C@]2(C)C(=O)CC[C@@H]12 [IIa.5, (1S,2R,13R,14S,18S)-7-(benzylamino)-2,18-dimethyl-6-thia-8-azapentacyclo[11.7.0.02,10.05,9.014,18]icosa-5(9),7,10-trien-17-one] | 6% | 97% | 46% |  |
| CCCCNC1=NC2C3=CC[C@@H]4[C@H](CC[C@]5(C)C(=O)CC[C@@H]45)[C@@]3(C)CCC2S1 (stereo partly drawn) [IIa.31, (1S,2R,13R,14S,18S)-7-(butylamino)-2,18-dimethyl-6-thia-8-azapentacyclo[11.7.0.02,10.05,9.014,18]icosa-7,10-dien-17-one] | 74% | 93% | 69% |  |
| C[C@]12CCc3nc(Nc4ccc(F)cc4)sc3C1=CC[C@@H]1[C@@H]2CC[C@]2(C)C(=O)CC[C@@H]12 [IIa.9, (1S,2R,13R,14S,18S)-7-(4-fluoroanilino)-2,18-dimethyl-8-thia-6-azapentacyclo[11.7.0.02,10.05,9.014,18]icosa-5(9),6,10-trien-17-one] | 61% | 90% | 58% |  |
| C[C@]12CCc3sc(Nc4ccccn4)nc3C1=CC[C@@H]1[C@@H]2CC[C@]2(C)C(=O)CC[C@@H]12 [IIa.21, (1S,2R,13R,14S,18S)-2,18-dimethyl-7-(2-pyridylamino)-6-thia-8-azapentacyclo[11.7.0.02,10.05,9.014,18]icosa-5(9),7,10-trien-17-one] | 58% | 93% | 88% |  |
| C[C@]12CC[C@H]3[C@@H](CC=C4c5sc(-c6ccc(Br)cc6)nc5CC[C@@]43C)[C@@H]1CC[C@@H]2O [III.19, (1S,2R,13R,14S,17S,18S)-7-(4-bromophenyl)-2,18-dimethyl-8-thia-6-azapentacyclo[11.7.0.02,10.05,9.014,18]icosa-5(9),6,10-trien-17-ol] |  |  |  | 58% |
| Cc1nc2c(s1)C1=CC[C@H]3[C@@H]4CC[C@H](O)[C@@]4(C)CC[C@@H]3[C@@]1(C)CC2 [III.1, (1S,2R,13R,14S,17S,18S)-2,7,18-trimethyl-8-thia-6-azapentacyclo[11.7.0.02,10.05,9.014,18]icosa-5(9),6,10-trien-17-ol] |  |  |  | 58% |
| C[C@]12CCc3sc(N)nc3C1=CC[C@@H]1[C@@H]2CC[C@]2(C)C(=O)CC[C@@H]12 [IIa.1, (1S,2R,13R,14S,18S)-7-amino-2,18-dimethyl-6-thia-8-azapentacyclo[11.7.0.02,10.05,9.014,18]icosa-5(9),7,10-trien-17-one] |  | 1% | 29% |  |
| C[C@]12CC[C@H]3[C@@H](CC=C4c5sc(-c6ccc(O)c(O)c6)nc5CC[C@@]43C)[C@@H]1CC[C@@H]2O [III.7, 4-[(1S,2R,13R,14S,17S,18S)-17-hydroxy-2,18-dimethyl-8-thia-6-azapentacyclo[11.7.0.02,10.05,9.014,18]icosa-5(9),6,10-trien-7-yl]benzene-1,2-diol] |  |  |  | 11% |
| C[C@]12CCc3sc(Nc4ccccc4[N+](=O)[O-])nc3C1=CC[C@@H]1[C@@H]2CC[C@]2(C)C(=O)CC[C@@H]12 [IIa.13, (1S,2R,13R,14S,18S)-2,18-dimethyl-7-(2-nitroanilino)-6-thia-8-azapentacyclo[11.7.0.02,10.05,9.014,18]icosa-5(9),7,10-trien-17-one] | 58% | 6% | 36% |  |
| C[C@]12CC[C@H]3[C@@H](CC=C4c5sc(-c6ccccc6O)nc5CC[C@@]43C)[C@@H]1CC[C@@H]2O [III.6, (1S,2R,13R,14S,17S,18S)-7-(2-hydroxyphenyl)-2,18-dimethyl-8-thia-6-azapentacyclo[11.7.0.02,10.05,9.014,18]icosa-5(9),6,10-trien-17-ol] |  |  |  | 32% |
| C[C@]12CC[C@H]3[C@@H](CC=C4c5sc(-c6ccccn6)nc5CC[C@@]43C)[C@@H]1CC[C@@H]2O [III.4, (1S,2R,13R,14S,17S,18S)-2,18-dimethyl-7-(2-pyridyl)-8-thia-6-azapentacyclo[11.7.0.02,10.05,9.014,18]icosa-5(9),6,10-trien-17-ol] |  |  |  | 86% |
| C[C@]12CCc3sc(Nc4ccccc4)nc3C1=CC[C@@H]1[C@@H]2CC[C@]2(C)C(=O)CC[C@@H]12 [IIa.7, (1S,2R,13R,14S,18S)-7-anilino-2,18-dimethyl-6-thia-8-azapentacyclo[11.7.0.02,10.05,9.014,18]icosa-5(9),7,10-trien-17-one] |  | 43% |  |  |
